Measured values from patent publication US20050123477A1, “Benzothiazole derivatives for in vivo imaging of amloid plaques” (priority 2002, published 2005).
Where no end group is shown, it is not given here.

Experiments:
CACO-2 cells = test: CACO-2 cell apparent permeability (Papp), BBB model; conditions: CACO-2 monolayers in Transwells, 30 minutes at 37° C., donor to acceptor
Experimental: Culturing of CACO-2 cells and Determination of Apparent Permeability (Papp) Values:
The seeding of 12 mm Transwells was as follows for CACO-2. Flasks of confluent cultures were trypsinsed and cells were carefully resuspended, making sure there are no clumps or air bubbles. 1.5 ml of tissue culture medium was placed in the bottom (acceptor) chamber of the wells and 0.5 ml containing 2×10^5 cells in the Transwell (donor chamber) and placed in the incubator. The cells were routinely monitored for adequate trans epithelial electrical resistance (TEER) using an EndOhm Tissue resistance measurement chamber (WPI). The subsequent maintenance and feeding of the cells on the Transwells was as follows: when feeding the wells, the medium was removed from the acceptor chamber (basolateral side) and donor chamber (apical side) of the Transwells. The medium was aspirated off with a pipette connected to a vacuum pump, being careful not to touch the filter. 0.5 ml of growth medium was then placed into the donor chamber and 1.5 ml of growth medium was placed into the acceptor chamber.
When the TEER values of the CACO-2 cell monolayers in Transwells was around 500 Ωcm^2 (300-800 Ωcm^2 was considered acceptable) permeability experiments were performed in triplicate as follows. All culture media was removed and acceptor and donor chambers were rinsed twice with Eagles Balance Salt Solution (EBSS) (Gibco) at 37° C. 1.5 ml EBSS was added to the acceptor chamber and 0.5 ml EBSS containing radiolabelled compound was added to the donor chamber. Cultures in Transwells were then incubated for 30 minutes at 37° C. at 200 rpm using a Labnet Vortemp. After 30 minutes, 100 μl aliquot was taken from the donor chamber and 750 μl from the acceptor chamber. These aliquots were then counted for radioactivity. The remaining EBSS was removed from the acceptor and donor chambers and then the Transwell was thoroughly rinsed three times la with EBSS. Next, the Transwell membrane (and associated cells) was removed using a scalpel and the amount of radiolabel associated with it was determined.
Permeability of compounds were determined by calculating their Papp value: Papp=ΔQ/Δt.60.A.Co (cm/sec)

LogP and delta LogP = assay type: physicochemical
[1] = Brain Uptake Index (BUI) method; assay type: in vivo; conditions: for Mean BUI: carotid artery bolus, decapitated after 15 seconds, relative to 14C-Butanol
Experimental: BUI is calculated according to the following equation: [formula] BUI was performed on three animals from the same test solution for each experiment. Each compound was assayed in duplicate.

In situ brain perfusion = assay type: in vivo; parameters: unit not given here; conditions: unidirectional brain influx constant, perfusion 2-30 minutes
[2] = target: T1, fibrillar Beta-Amyloid Protein (BAP 1-40) (Homo sapiens, UniProt P05067); test: Amyloid binding on SPA beads; conditions: 180 minutes at room temperature, equimolar amounts, non-specific binding subtracted
T1 construct: 25 μl BAP 1-40 (10 mg/ml, Biosource 03-138); purchased Biosource 03-138 (BAP 1-40); 03-243 (biotinylated BAP 1-40)
T1 sequence (P05067 672-711 limits assumed): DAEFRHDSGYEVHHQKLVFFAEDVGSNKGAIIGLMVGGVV
Experimental: The binding of Compound 1 (74 TBq/mmol) was determined compared to the ability of ^125I-beta amyloid protein 1-40 (^125I-BAP 1-40, Amersham Biosciences IM294)) to bind to amyloid 140 fibrils. Amyloid binding was essentially performed as follows.
Three fresh buffer stocks were prepared for experiments: Buffer 1, 50 mM HEPES/0.1 % Bovine Serum Albumin (BSA) pH 7.5; Buffer 2, 50 mM HEPES/0.1% BSA/400 μM ZnCl2 pH 7.5; Buffer 3, 50 mM HEPES/0.1% BSA/100 μM ZnCl2 pH 7.5.
Streptavidin coated scintillation proximity assay beads (SA-SPA beads, Amersham Biosciences) were used to immobilise fibrillar Beta-Amyloid Protein (BAP 1-40). Amyloid coated beads (SPA-BAP) were prepared by incubating 250 μl SA-SPA beads (100 mg/ml) with 250 μl Buffer 2, 425 μl Buffer 1, 50 μl biotinylated BAP 1-40 (0.5 mg/ml, Biosource 03-243), 25 μl BAP 1-40 (10 mg/ml, Biosource 03-138). Non-specific binding SPA beads (SPA-NSB) were prepared to assess the binding of compounds to SPA beads with no associated BAP 1-40 fibrils in the following incubation: 250 μl SA-SPA beads (100 mg/ml) with 250 μL Buffer 2,500 μl Buffer 1.
SPA-BAP and SPA-NSB incubations were left for 24 hours at room temperature and then spun 1.5 ml tubes (eppendorf, Merk, 306/0421/12) for 2 minutes at 1000×g. The supernatants were removed and the beads were washed twice by resuspending them in 1 ml Buffer 3 followed by centrifugation for 2 minutes at 1000×g. Finally, washed SPA-BAP and SPA-NSB beads were resuspended in 1 ml Buffer 3.
Amyloid binding of ^125I-BAP 1-40 and Compound 1 was performed in triplicate in 0.5 ml tubes (eppendorf, Merk, 306/0421/02) by adding 50 μl SPA-BAP beads to 25 μl Buffer 2 and 25 μl labelled compound (^125I-BAP 1-40 or Compound 1). Tubes were then incubated for 180 minutes at room temperature with shaking, followed by centrifugation for 2 minutes at 1000×g. The supernatants were removed and SPA-BAP pellet washed twice with 300 μl Buffer 3 containing 1% TWEEN-20 (Sigma, P7949). Non-specific binding for labelled compounds to the SPA beads was determined using incubations as described above but by substituting SPA-BAP beads with SPA-NSB beads. Radioactivity associated with the washed SPA bead pellets was then determined.
The affinity of labelled compounds for fibrillar BAP 1-40 was estimated by subtracting SPA-NSB associated counts from SPA-BAP associated counts. The binding of labelled compounds was then compared to ^125I-BAP binding, which was taken as being 100%.
In these experiments, ^125-BAP 1-40 or Compound 1 were added in equimolar amounts (between 1-5×10^−11 mmoles per incubation).

[3] = Pharmacokinetics / biodistribution; assay type: in vivo, normal male wistar rats; conditions: for percentage injected dose, Blood / percentage injected dose, Brain / percentage injected dose, Fat / percentage injected dose, Kidney / percentage injected dose, LI (large intestines) / percentage injected dose, Muscle / percentage injected dose, SI (small intestines) / percentage injected dose, Skin / percentage injected dose, Spleen / percentage injected dose, Stomach / percentage injected dose, inj site / percentage injected dose, liver / percentage injected dose, lung / percentage injected dose, thyroid / percentage injected dose, urine: tail vein
Experimental: Compound 1 IMQ1961 prepared by Amersham Biosciences 250 μCi/ml (specific activity 2000Ci/mmol) freshly diluted to give 1 μCi/0.1 ml volume injection bolus. 15 normal male wistar rats 150-180 g (Charles River).
Male wistar rats were anaethetised briefly prior to injection with Compound 1 (1 μCi, 0.1 ml bolus tail vein). Biodistributions were performed at five time points (5, 15, 30, 60 and 120 mins) in triplicate animals in which tissues from brain, blood, muscle, kidney, spleen, stomach, small intestines, large intestines and faeces, bladder and urine, fat, skin and thyroid were dissected and counted for distribution of the compound in the body in a Wallac Wizzard gamma counter.
Percentage injected dose calculations were made and plotted using the Qk pharmacokinetics program to determine t½ α, and volume of distribution (VD). Relative retention (RR) and Brain:tissue ratios were calculated as follows; [formula] [formula] Results and Discussion

Capillary depletion = conditions: carotid bolus, brain removed ten seconds after injection
Experimental: Compounds that may appear to cross the blood-brain barrier may be sticking to the vasculature within the brain, rather than entering the brain parenchyma. For this reason a capillary depletion method was employed that separates the capillaries from brain homogenate.
Male Wistar rats weighing 150-250 g were deeply anaesthetised by the administration of 55 mg/kg sodium pentabarbital (Rhone-Meriaux) by intra peritoneal injection. The left common carotid artery was exposed by blunt dissection, and 100 μl of test solution injected in a single bolus into the carotid using a 30G needle and 1ml syringe (injection time ˜1 second). The injectate contained both the test/validation compound and ^14C— or ^3H-Sucrose (Amersham Biosciences) as a non-diffusable standard. Ten seconds after injection, the animal was decapitated and the brain removed. […] Pellet, supernatant and a sample of injection solution were counted on a Rackbeta Excel scintillation counter, after the addition of 10 ml Hionic Fluor scintillant (Packard). ^14C/^3H-Sucrose served to correct for vascular volume of vessels contained in the pellet, and also activity that had leaked from the vasculature into the supernatant during the homogenisation procedure.
Volumes of distribution for pellet and supernatant were calculated as shown below. Data is expressed as ratio of volume of distribution in the supernatant to pellet. […]

## Cc1cc(-c2nc3cc([125I])ccc3s2)ccc1N [Compound 1, 5-[^125I]-iodo-2-(4′-amino-3′-methylphenyl)benzothiazole]
CACO-2 cells
  Papp: 13.7 ×10⁻⁶ cm/s
LogP and delta LogP
  LogP: 1.75
  ΔLogP: −0.38
[1]
  Mean BUI: 43.6
[1]; cut off low/medium 20%
  BBB penetration (from BUI): medium to high BBB penetration
In situ brain perfusion
  Kin: 49.8
[2]
  Amyloid binding (% of 125I-BAP 1-40): 27%
[3]; 1 μCi tail vein bolus
  t½ (α) of clearance from brain: 12.4 min
[3]; 5 minutes
  relative retention, blood: 1.04
  relative retention, brain: 1.01
[3]; over two hour experiment, indicates in vivo stability to deiodination
  thyroid uptake: < 1%
[3]; rat, in vivo
  Clearance through the body: largely via the hepatobiliary system
[3]; 5 min
  percentage injected dose, Blood: 6.05 % ID
  percentage injected dose, Brain: 0.94 % ID
  percentage injected dose, Fat: 30.82 % ID
  percentage injected dose, Kidney: 3.14 % ID
  percentage injected dose, LI (large intestines): 1.53 % ID
  percentage injected dose, Muscle: 21.49 % ID
  percentage injected dose, SI (small intestines): 9.04 % ID
  percentage injected dose, Skin: 8.92 % ID
  percentage injected dose, Spleen: 0.69 % ID
  percentage injected dose, Stomach: 1.82 % ID
  percentage injected dose, inj site: 2.12 % ID
  percentage injected dose, liver: 19.47 % ID
  percentage injected dose, lung: 1.40 % ID
  percentage injected dose, thyroid: 0.16 % ID
  percentage injected dose, urine: 0.04 % ID
[3]; 15 min
  percentage injected dose, Blood: 4.14 % ID
  percentage injected dose, Brain: 0.75 % ID
  percentage injected dose, Fat: 36.31 % ID
  percentage injected dose, Kidney: 1.60 % ID
  percentage injected dose, LI (large intestines): 1.77 % ID
  percentage injected dose, Muscle: 19.83 % ID
  percentage injected dose, SI (small intestines): 12.60 % ID
  percentage injected dose, Skin: 12.80 % ID
  percentage injected dose, Spleen: 0.32 % ID
  percentage injected dose, Stomach: 2.56 % ID
  percentage injected dose, inj site: 1.86 % ID
  percentage injected dose, liver: 7.48 % ID
  percentage injected dose, lung: 0.49 % ID
  percentage injected dose, thyroid: 0.16 % ID
  percentage injected dose, urine: 2.10 % ID
[3]; 30 min
  percentage injected dose, Blood: 3.58 % ID
  percentage injected dose, Brain: 0.49 % ID
  percentage injected dose, Fat: 59.02 % ID
  percentage injected dose, Kidney: 0.95 % ID
  percentage injected dose, LI (large intestines): 1.90 % ID
  percentage injected dose, Muscle: 12.59 % ID
  percentage injected dose, SI (small intestines): 21.93 % ID
  percentage injected dose, Skin: 16.90 % ID
  percentage injected dose, Spleen: 0.19 % ID
  percentage injected dose, Stomach: 6.66 % ID
  percentage injected dose, inj site: 3.05 % ID
  percentage injected dose, liver: 4.46 % ID
  percentage injected dose, lung: 0.48 % ID
  percentage injected dose, thyroid: 0.39 % ID
  percentage injected dose, urine: 1.63 % ID
[3]; 60 min
  percentage injected dose, Blood: 2.77 % ID
  percentage injected dose, Brain: 0.29 % ID
  percentage injected dose, Fat: 73.92 % ID
  percentage injected dose, Kidney: 0.63 % ID
  percentage injected dose, LI (large intestines): 7.75 % ID
  percentage injected dose, Muscle: 7.79 % ID
  percentage injected dose, SI (small intestines): 28.42 % ID
  percentage injected dose, Skin: 17.14 % ID
  percentage injected dose, Spleen: 0.15 % ID
  percentage injected dose, Stomach: 8.98 % ID
  percentage injected dose, inj site: 1.83 % ID
  percentage injected dose, liver: 3.12 % ID
  percentage injected dose, lung: 0.34 % ID
  percentage injected dose, thyroid: 0.17 % ID
  percentage injected dose, urine: 8.39 % ID
[3]; 120 min
  percentage injected dose, Blood: 2.27 % ID
  percentage injected dose, Brain: 0.18 % ID
  percentage injected dose, Fat: 55.62 % ID
  percentage injected dose, Kidney: 0.45 % ID
  percentage injected dose, LI (large intestines): 3.12 % ID
  percentage injected dose, Muscle: 5.60 % ID
  percentage injected dose, SI (small intestines): 26.86 % ID
  percentage injected dose, Skin: 12.89 % ID
  percentage injected dose, Spleen: 0.08 % ID
  percentage injected dose, Stomach: 9.29 % ID
  percentage injected dose, inj site: 2.62 % ID
  percentage injected dose, liver: 2.39 % ID
  percentage injected dose, lung: 0.23 % ID
  percentage injected dose, thyroid: 0.95 % ID
  percentage injected dose, urine: 10.02 % ID
Capillary depletion
  Ratio of VD supernatant/pellet: 7.2

## O=C[C@H](O)[C@@H](O)[C@H](O)[C@H](O)CO [^14C-Glucose, ^14C-glucose]
CACO-2 cells
  Papp: 57.9 ×10⁻⁶ cm/s

## CN1C(=O)CN=C(c2ccccc2)c2cc(Cl)ccc21 [^14C-diazapam, ^14C-diazepam]
CACO-2 cells
  Papp: 24.4 ×10⁻⁶ cm/s

## OCC(O)C(O)C(O)C(O)[14CH2]O (centres unmarked) [^14C-mannitol]
CACO-2 cells
  Papp: 3.63 ×10⁻⁶ cm/s

## ^14C-FDG [reference compound]
[1]
  Mean BUI: 17.98

## ^99mTc-Pn216-KKLVFF (BAP 15-20): ^99mTc-labelled BAP sequence responsible for the binding of BAP to itself
[2]
  Amyloid binding (% of 125I-BAP 1-40): 9%

## ^125I-BAP 1-40: ^125I-beta amyloid protein 1-40, Amersham Biosciences IM294; reference taken as 100% binding
[2]
  Amyloid binding (% of 125I-BAP 1-40): 100%

## ^125I-KKLVFFA (BAP 15-21): ^125I-labelled BAP 15-21 sequence (Amersham Biosciences) (not fully specified (N-terminus); also: 125I label, site not given here)
[2]
  Amyloid binding (% of 125I-BAP 1-40): 21%
